Measured values as given in article PMC6254286, “Quantitative Structure − Antiprotozoal Activity Relationships of Sesquiterpene Lactones ^†” (Molecules, 2009).
Read-outs that look alike come from different tables or passages of the source.

Legend:
[1] = tested on: T. cruzi Tulahuen strain C2C4; assay: In vitro activity against T. cruzi in L-6 host cells (beta-galactosidase/CPRG); type: cell-based, Trypanosoma cruzi; conditions: Tulahuen C2C4 in L-6 cells, 96 h, mean of two independent measurements, read-out: IC50 T. cruzi (Tcr)
Procedure: Trypanosoma cruzi. Rat skeletal myoblasts (L-6 cells) were seeded in 96-well microtiter plates at 2,000 cells/well in 100 µL RPMI 1640 medium with 10% FBS (fetal bovine serum) and 2 mM L-glutamine. After 24 hours the medium was removed and replaced by 100 µL per well containing 5,000 trypomastigote forms of T. cruzi Tulahuen strain C2C4 containing the β-galactosidase (Lac Z) gene. Fortyeight hours later the medium was removed from the wells and replaced by […] fresh medium with or without a serial drug dilution. Seven 3-fold dilutions were used covering a range from […]. Each drug was tested in duplicate. After 96 hours of incubation the plates were inspected under an inverted microscope to assure growth of the controls and sterility. Then the substrate CPRG/ Nonidet (50 µL) was added to all wells. A colour reaction developed within 2-6 hours and could be read photometrically at 540 nm.

[2] = tested on: Trypanosoma brucei rhodesiense STIB 900; assay: In vitro activity against T. brucei rhodesiense bloodstream forms (Alamar blue); type: cell-based; conditions: for IC50: bloodstream forms STIB 900, 72 h, mean of two independent measurements, read-out: IC50 T. brucei rhodes. (Tbr); for selectivity index (SI) with respect to Tbr: ratio of cytotoxic IC50 (L6) over IC50 against Tbr
Procedure: (§1) Trypanosoma brucei rhodesiense and cytotoxicity against L6 cells. Minimum Essential Medium with Earle’s salts (50 µL) supplemented with 0.2 mM 2-mercapto-ethanol, 1 mM Na-pyruvate and 15% heat-inactivated horse serum was added to each well of a 96-well microtiter plate. […] Then 10^4 bloodstream forms of Trypanosoma brucei rhodesiense STIB 900 in 50 µL of medium were added to each well and the plate incubated at 37°C under a 5% CO2 atmosphere for 72 hours. […] The plate was then read in a Spectramax Gemini XS microplate fluorometer (Molecular Devices Corporation, Sunnyvale, CA, USA) using an excitation wavelength of 536 nm and emission wavelength of 588 nm. Fluorescence development was measured and expressed as percentage of the control. Data were transferred into the graphic programme Softmax Pro (Molecular Devices) which calculated IC50 values. Cytotoxicity was assessed using a similar protocol and rat skeletal myoblasts (L6 cells). […] All following steps were according to the T. b. rhodesiense protocol.

[3] = tested on: K1 strain of P. falciparum; assay: Antiplasmodial [3H]-hypoxanthine incorporation assay; type: cell-based, Plasmodium falciparum
Procedure: Plasmodium falciparum. Antiplasmodial activity was determined using the K1 strain of P. falciparum (resistant to chloroquine and pyrimethamine). A modification of the [3H]-hypoxanthine incorporation assay was used. Briefly, infected human red blood cells (final parasitaemia and haematocrit were 0.3% and 1.25%, respectively) in RPMI 1640 medium with 5% Albumax were exposed to serial drug dilutions in microtiter plates. After 48 hours of incubation at 37°C in a reduced oxygen atmosphere, 0.5 mCi 3H-hypoxanthine was added to each well. Cultures were incubated for a further 24 h before they were harvested onto glass-fiber filters and washed with distilled water. The radioactivity was counted using a BetaplateTM liquid scintillation counter (Wallac, Zurich, Switzerland). […] From the sigmoidal inhibition curves IC50 values were calculated. Assays were run in duplicate and repeated once.

[4] = tested on: rat skeletal myoblasts (L6 cells); assay: Cytotoxicity against L6 cells (Alamar blue)
Procedure: as §1

[5] = tested on: Leishmania donovani amastigotes (strain MHOM/ET/67/L82); assay: L. donovani axenic amastigote assay (resazurin); type: cell-based; conditions: for IC50: pH 5.4, 72 h, mean of two independent measurements, read-out: IC50 L. donovani (Ldon); for selectivity index (SI) with respect to Ldon: ratio of cytotoxic IC50 (L6) over IC50 against Ldon
Procedure: Leishmania donovani (axenic amastigote assay). […] Serial drug dilutions in duplicates were prepared covering a range from 30 to 0.041 µg/mL. […] The compounds used as positive controls in the various bioassays (see Table 1) were of commercial origin, with the exception of melarsoprol, which was a gift from WHO. Their purity (generally > 95%) was specified by the manufacturers.

[6] = Cytotoxicity against L6 cells (Alamar blue); conditions: rat; for IC50: IC50 Cytotoxicity (L6), L6 rat skeletal myoblasts, 72 h, mean of two independent measurements
Procedure: as §1

[7] = Trypanosoma cruzi, TULAHUEN, L6, 96 h
[8] = Plasmodium falciparum, K1, K1 strain (resistant to chloroquine and pyrimethamine), mean of two independent measurements, read-out: IC50 P. falciparum (Pfc)
[9] = protozoa, especially Tbr, versus L6 mammalian cells
[10] = L6 cells (rat skeletal myoblasts)
[11] = Leishmania donovani, 72 h, pH 5.4, axenic amastigotes
[12] = Plasmodium falciparum, K1, read-out: IC50 P. falciparum (Pfc)
[13] = Leishmania donovani, axenic amastigotes

| SMILES | IC50 [1, 7] | IC50 ([2]; Trypanosoma brucei, 72 h) | IC50 [3, 8] | IC50 at 72 h [6, 10] | IC50 [5, 11] | other results |
| --- | --- | --- | --- | --- | --- | --- |
| C=C1C(=O)OC2C1CCC1(C)C(O)CCC(=C)C21 (centres unmarked) [Compound 32] | – | – | – | – | – | IC50 [1]: 26.2 µM; IC50 [2]: 1.11 µM; IC50 ([3]; K1 strain (resistant to chloroquine and pyrimethamine), mean of two independent measurements, read-out: IC50 P. falciparum (Pfc)): 13.6 µM; IC50 ([4]; read-out: IC50 Cytotoxicity (L6), L6 rat skeletal myoblasts, 72 h, mean of two independent measurements): 25.6 µM; IC50 ([5]; axenic amastigotes): 7.34 µM |
| C=C1C(=O)OC2CC(C)C3(C=CC(C)=O)OC3CC12 (centres unmarked) [Compound 19, 8-epixanthatin-1,5-epoxide] | 11.3 µM | 0.33 µM | 6.51 µM | 22.1 µM | 0.599 µM | selectivity index (SI) with respect to Tbr [2]: 67; antiparasitic activity compared with cytotoxicity (in words) [4, 9]: significantly higher levels of antiparasitic activity, especially against Tbr, than cytotoxicity; selectivity index (SI) with respect to Ldon [5]: 36 |
| C=C1C(=O)OC2CC(C)C(C=CC(C)=O)=CCC12 (centres unmarked) [Compound 18] | – | 2.92 µM | 7.83 µM | 30.2 µM | 17.6 µM | IC50 ([1]; Trypanosoma cruzi, L6): 26.2 µM; antiparasitic activity compared with cytotoxicity (in words) [4]: significantly higher levels of antiparasitic activity, especially against Tbr, than cytotoxicity |
| C=C1C(=O)OC2CC3(C)CCCC(=C)C3CC12 (centres unmarked) [Compound 25] | 22.3 µM | 23.6 µM | – | – | > 14 µM | antiparasitic activity compared with cytotoxicity (in words) [4, 9]: considerably more toxic against the mammalian cells than against the protozoa; IC50 at 72 h [6]: 4.48 µM |
| C=C1C(=O)OC2C=C(C)C(O)CC3OC3(COC(C)=O)CC(OC(=O)C(C)=CC)C12 (centres unmarked) [Compound 40] | 11.8 µM | 0.698 µM | 6.64 µM | – | 17.1 µM | IC50 [6]: 6.67 µM |
| C=C1C(=O)OC2CC(C)C3C=CC(=O)C3(C)C(OC(C)=O)C12 (centres unmarked) [Compound 2] | – | < 0.1 µM | – | – | – | IC50 ([1]; Trypanosoma cruzi, L6): 0.538 µM; IC50 [2]: 0.063 µM; selectivity index (SI) with respect to Tbr [2]: 13; IC50 [3, 12]: 0.329 µM; IC50 [6]: 0.809 µM; IC50 [5, 13]: 0.446 µM |
| C=C1CC(O)CC2(C)CC3OC(=O)C(C)C3CC12 (centres unmarked) [Compound 28] | > 120 µM | 341 µM | > 20 µM | 187 µM | > 120 µM | – |
| C=C1C(=O)OC2CC(C)C3C(OC(C)=O)CC(OC(C)=O)C3(C)CC12 (centres unmarked) [Compound 14] | 14.7 µM | 1.17 µM | 8.94 µM | 8.43 µM | 4.26 µM | – |
| C=C1C(=O)OC2CC3(C)CC(OC(C)=O)CC(=C)C3CC12 (centres unmarked) [Compound 27] | 24.3 µM | 10.7 µM | 9.21 µM | 8.91 µM | 11.8 µM | – |
| C=C1C(=O)OC2CC3(C)CC(O)CC(=C)C3CC12 (centres unmarked) [Compound 26] | 24.8 µM | 7.8 µM | – | 0.948 µM | > 4 µM | antiparasitic activity compared with cytotoxicity (in words) [4, 9]: considerably more toxic against the mammalian cells than against the protozoa |
| C=C1C(=O)OC2CC(C)C3C=CC(=O)C3(C)C(OC(=O)C(C)C)C12 (centres unmarked) [Compound 3] | – | 0.105 µM | – | – | – | IC50 ([1]; Trypanosoma cruzi, L6): 1.57 µM; IC50 [3, 12]: 0.7 µM; IC50 [6]: 1.03 µM; IC50 [5, 13]: 0.837 µM |
| C=C1C(=O)OC2CC(C)C3=CC(=O)OC3CC12 (centres unmarked) [Compound 24] | > 120 µM | 8.21 µM | > 20 µM | 427 µM | 27.1 µM | selectivity index (SI) with respect to Tbr [2]: 52; selectivity index (SI) with respect to Ldon [5]: 15 |
